Results from PubChem BioAssay (NCI).
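Tested at 5 concentrations; 48 h exposure; 96-well plates; endpoints linearly interpolated, else capped at highest concentration. GI50 = concentration required for 50% inhibition of growth. Definition used: TGI = concentration required for complete inhibition of growth.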

What was measured:
Assay in all cases: growth of human tumour cells (NCI), 48 h
COLO 205 colon = tested on: COLO 205 colon
NCI-H460 lung = tested on: NCI-H460 lung
LOX IMVI melanoma = tested on: LOX IMVI melanoma
UACC-257 melanoma = tested on: UACC-257 melanoma
CCRF-CEM leukemia = tested on: CCRF-CEM leukemia
SK-MEL-28 melanoma = tested on: SK-MEL-28 melanoma
UACC-62 melanoma = tested on: UACC-62 melanoma
OVCAR-8 ovarian = tested on: OVCAR-8 ovarian
M14 melanoma = tested on: M14 melanoma
SF-268 CNS = tested on: SF-268 CNS
A549 NSCLC = tested on: A549 NSCLC
SN12C renal = tested on: SN12C renal
T-47D breast = tested on: T-47D breast
EKVX NSCLC = tested on: EKVX NSCLC
NCI/ADR-RES ovarian = tested on: NCI/ADR-RES ovarian
SF-539 CNS = tested on: SF-539 CNS
MDA-MB-468 breast = tested on: MDA-MB-468 breast
HT29 colon = tested on: HT29 colon
DU-145 prostate = tested on: DU-145 prostate
MOLT-4 leukemia = tested on: MOLT-4 leukemia
A498 renal = tested on: A498 renal
HL-60(TB) leukemia = tested on: HL-60(TB) leukemia
SK-MEL-2 melanoma = tested on: SK-MEL-2 melanoma
SF-295 CNS = tested on: SF-295 CNS
HOP-62 NSCLC = tested on: HOP-62 NSCLC
SK-MEL-5 melanoma = tested on: SK-MEL-5 melanoma
SK-OV-3 ovarian = tested on: SK-OV-3 ovarian
MALME-3M melanoma = tested on: MALME-3M melanoma
U251 CNS = tested on: U251 CNS
OVCAR-4 ovarian = tested on: OVCAR-4 ovarian
SW-620 colon = tested on: SW-620 colon
TK-10 renal = tested on: TK-10 renal
RPMI-8226 leukemia = tested on: RPMI-8226 leukemia
HS 578T breast = tested on: HS 578T breast
ACHN renal = tested on: ACHN renal
PC-3 prostate = tested on: PC-3 prostate
UO-31 renal = tested on: UO-31 renal
KM12 colon = tested on: KM12 colon
SNB-75 CNS = tested on: SNB-75 CNS
HCC-2998 colon = tested on: HCC-2998 colon
SNB-19 CNS = tested on: SNB-19 CNS
K-562 leukemia = tested on: K-562 leukemia
NCI-H23 lung = tested on: NCI-H23 lung
OVCAR-5 ovarian = tested on: OVCAR-5 ovarian
NCI-H226 lung = tested on: NCI-H226 lung
CAKI-1 renal = tested on: CAKI-1 renal
MDA-MB-231 breast = tested on: MDA-MB-231 breast
HOP-92 NSCLC = tested on: HOP-92 NSCLC
NCI-H522 lung = tested on: NCI-H522 lung
HCT-116 colon = tested on: HCT-116 colon
MCF7 breast = tested on: MCF7 breast
MDA-MB-435 = tested on: MDA-MB-435
BT-549 breast = tested on: BT-549 breast
IGROV1 ovarian = tested on: IGROV1 ovarian
HCT-15 colon = tested on: HCT-15 colon
786-0 renal = tested on: 786-0 renal
SR leukemia = tested on: SR leukemia
OVCAR-3 ovarian = tested on: OVCAR-3 ovarian
RXF 393 renal = tested on: RXF 393 renal

O=C(NO)c1ccc(Cn2ccc3c(NCc4ccccc4)ncnc32)cc1
GI50 (COLO 205 colon): 2.43 µM
TGI (COLO 205 colon): 6.24 µM
GI50 (NCI-H460 lung): 3.12 µM
TGI (NCI-H460 lung): 19.1 µM
GI50 (LOX IMVI melanoma): 4.2 µM
TGI (LOX IMVI melanoma): 16.1 µM
GI50 (UACC-257 melanoma): 2.39 µM
TGI (UACC-257 melanoma): 15.1 µM
GI50 (CCRF-CEM leukemia): 3.72 µM
TGI (CCRF-CEM leukemia): 58.7 µM
GI50 (SK-MEL-28 melanoma): 3.77 µM
TGI (SK-MEL-28 melanoma): 17.5 µM
GI50 (UACC-62 melanoma): 2.39 µM
TGI (UACC-62 melanoma): 12.2 µM
GI50 (OVCAR-8 ovarian): 3.1 µM
TGI (OVCAR-8 ovarian): 14.4 µM
GI50 (M14 melanoma): 4.12 µM
TGI (M14 melanoma): 20.2 µM
GI50 (SF-268 CNS): 8.8 µM
TGI (SF-268 CNS): 36.5 µM
GI50 (A549 NSCLC): 4.34 µM
TGI (A549 NSCLC): 20.6 µM
GI50 (SN12C renal): 4.41 µM
TGI (SN12C renal): 17.3 µM
GI50 (T-47D breast): 3.13 µM
TGI (T-47D breast): 21.8 µM
GI50 (EKVX NSCLC): 5.93 µM
TGI (EKVX NSCLC): 19.8 µM
GI50 (NCI/ADR-RES ovarian): 2.6 µM
TGI (NCI/ADR-RES ovarian): 12.7 µM
GI50 (SF-539 CNS): 2.64 µM
TGI (SF-539 CNS): 9.8 µM
GI50 (MDA-MB-468 breast): 2.12 µM
TGI (MDA-MB-468 breast): 6.05 µM
GI50 (HT29 colon): 2.48 µM
TGI (HT29 colon): 6.93 µM
GI50 (DU-145 prostate): 4.06 µM
TGI (DU-145 prostate): > 103 µM
GI50 (MOLT-4 leukemia): 2.41 µM
TGI (MOLT-4 leukemia): 10.3 µM
GI50 (A498 renal): 2.28 µM
TGI (A498 renal): 10.2 µM
GI50 (HL-60(TB) leukemia): 2.34 µM
TGI (HL-60(TB) leukemia): 6.38 µM
GI50 (SK-MEL-2 melanoma): 4.58 µM
TGI (SK-MEL-2 melanoma): 18.7 µM
GI50 (SF-295 CNS): 3.49 µM
TGI (SF-295 CNS): 12.7 µM
GI50 (HOP-62 NSCLC): 4.13 µM
TGI (HOP-62 NSCLC): 20.9 µM
GI50 (SK-MEL-5 melanoma): 1.9 µM
TGI (SK-MEL-5 melanoma): 6.37 µM
GI50 (SK-OV-3 ovarian): 3.27 µM
TGI (SK-OV-3 ovarian): 15.6 µM
GI50 (MALME-3M melanoma): 1.99 µM
TGI (MALME-3M melanoma): 9.52 µM
GI50 (U251 CNS): 3.21 µM
TGI (U251 CNS): 15.2 µM
GI50 (OVCAR-4 ovarian): 12.2 µM
TGI (OVCAR-4 ovarian): 96.2 µM
GI50 (SW-620 colon): 2.22 µM
TGI (SW-620 colon): 6.49 µM
GI50 (TK-10 renal): 3.2 µM
TGI (TK-10 renal): 17.8 µM
GI50 (RPMI-8226 leukemia): 2.9 µM
TGI (RPMI-8226 leukemia): > 103 µM
GI50 (HS 578T breast): 2.27 µM
TGI (HS 578T breast): 7.62 µM
GI50 (ACHN renal): 4.07 µM
TGI (ACHN renal): 15.2 µM
GI50 (PC-3 prostate): 4.35 µM
TGI (PC-3 prostate): 97.9 µM
GI50 (UO-31 renal): 3.93 µM
TGI (UO-31 renal): 16.6 µM
GI50 (KM12 colon): 3.19 µM
TGI (KM12 colon): 12.7 µM
GI50 (SNB-75 CNS): 1.25 µM
TGI (SNB-75 CNS): 5.36 µM
GI50 (HCC-2998 colon): 4.5 µM
TGI (HCC-2998 colon): 17.1 µM
GI50 (SNB-19 CNS): 5.81 µM
TGI (SNB-19 CNS): 20.6 µM
GI50 (K-562 leukemia): 2.03 µM
TGI (K-562 leukemia): > 103 µM
GI50 (NCI-H23 lung): 4.8 µM
TGI (NCI-H23 lung): 17.2 µM
GI50 (OVCAR-5 ovarian): 2.57 µM
TGI (OVCAR-5 ovarian): 10.1 µM
GI50 (NCI-H226 lung): 4.17 µM
TGI (NCI-H226 lung): 25.5 µM
GI50 (CAKI-1 renal): 3.21 µM
TGI (CAKI-1 renal): 15.2 µM
GI50 (MDA-MB-231 breast): 5.2 µM
TGI (MDA-MB-231 breast): 22 µM
GI50 (HOP-92 NSCLC): 4.07 µM
TGI (HOP-92 NSCLC): 18.5 µM
GI50 (NCI-H522 lung): 1.93 µM
TGI (NCI-H522 lung): 7.69 µM
GI50 (HCT-116 colon): 3.4 µM
TGI (HCT-116 colon): 24.9 µM
GI50 (MCF7 breast): 3.25 µM
TGI (MCF7 breast): 22.8 µM
GI50 (MDA-MB-435): 0.562 µM
TGI (MDA-MB-435): 2.26 µM
GI50 (BT-549 breast): 13.7 µM
TGI (BT-549 breast): 31.7 µM
GI50 (IGROV1 ovarian): 4.14 µM
TGI (IGROV1 ovarian): 14.7 µM
GI50 (HCT-15 colon): 3.09 µM
TGI (HCT-15 colon): 15.2 µM
GI50 (786-0 renal): 8.63 µM
TGI (786-0 renal): 26.6 µM
GI50 (SR leukemia): 0.937 µM
TGI (SR leukemia): > 103 µM
GI50 (OVCAR-3 ovarian): 2.17 µM
TGI (OVCAR-3 ovarian): 5.23 µM
GI50 (RXF 393 renal): 1.94 µM
TGI (RXF 393 renal): 5.63 µM
